Results on ten compounds are retold here after patent US7491793B2 (priority 2003, dated 2009).

“Also recorded” adds a separate entry of the source.

The subject of one experiment is HIV-1 virion:cell fusion. Conditions: read-out: concentration giving 50% inhibition of HIV-1 virion:cell fusion; cited from earlier work.
A further experiment concerns HIV-1. Conditions: 100 mg/day, clinical trial, infected individuals; cited from earlier work.
Experiment [1] concerns SARS coronavirus strain Urbani. Type of experiment: cell-based, SARS CoV strain Urbani or HK.
The next experiment relates to Lassa fever. Conditions: only if administered early (up to six days) in the course of illness; cited from earlier work.
The test system of experiment [2] is mouse hepatitis virus strain A59. Type of experiment: cell-based, Mouse hepatitis virus (MHV) strain A59.

Take enfuvirtide: the IC50 in the experiment with HIV-1 virion:cell fusion is 1.7 nM. Besides, in the experiment with HIV-1, the “reduction in plasma HIV-1 load” value is on record as “approximately 100 fold”. For the compound GVFVFNGTSWFITQRNFFS [SEQ ID NO:25], in experiment [1], the “inhibition of plaque formation by SARS CoV” value (from here on “inhibition … by SARS CoV”) is “inhibited plaque formation”. For the compound GYHLMSFPQAAPHGVVFLHVTY [SEQ ID NO:24], the “inhibition … by SARS CoV” value in experiment [1] was “inhibited plaque formation”.

As for MYKTPTLKYFGGFNFSQIL [SEQ ID NO:28], the “inhibition … by SARS CoV” value in experiment [1] is recorded as “some inhibition”. On to `NC(=O)c1ncn([C@@H]2O[C@H](CO)[C@@H](O)[C@H]2O)n1` [ribavirin], for which the “efficacy in the treatment of Lassa fever” value in the experiment with Lassa fever is on record as “effective”. In the case of “QDAIKKLNESYINLKEVGTYEMYVKW [SEQ ID NO:27, peptide from the carboxyl terminal helix of MHV S]”, in experiment [2], the “inhibition of plaque formation by MHV” value is “some inhibition”.

In the case of “GYFVQDDGEWKFTGSSYYY [SEQ ID NO:23, synthetic peptide from the MHV FIR]”, the “inhibition of plaque formation by MHV” value in experiment [2] is “can inhibit plaque formation by MHV”. As for GNHILSLVQNAPYGLYFIHFSW [SEQ IDS NO:22], in experiment [2], the “inhibition of plaque formation by MHV” value is recorded as “can inhibit plaque formation by MHV; also recorded: more efficient”. As to “AACEVAKNLNESLIDLQELGKYEQYIKW [SEQ ID NO:29]”, in experiment [1], the “inhibition … by SARS CoV” value is on record as “some inhibition”.

MFPPWSAAAGVPFSLSVQY [SEQ ID NO:26]: the “inhibition of plaque formation by MHV” value in experiment [2] was “some inhibition”.
